In EP1201661A1, “HETEROAROMATIC RING COMPOUNDS” (Sumitomo Pharmaceuticals Company, Limited, priority 1999, dated 2001):

Test system: adjuvant-induced arthritis
Assay: Inhibition of adjuvant-induced arthritis (hind paw swelling)
Type: in vivo, Male SD rats
Details: 5 consecutive days from day 17 after adjuvant
Excerpt: Inhibition of adjuvant-induced arthritis
Male SD rats were used as test subjects. Heat-kllled Mycobacterium butyricum suspended in liquid paraffin in a concentration of 0.5% was subcutaneously injected into the right hind paw of each rat. After 17 days, animals showing the clear onset of secondary inflammation also in the left hind paw were selected, and each compound of the present invention suspended in a 0.5% methyl cellulose solution was orally administered to the animals for 5 consecutive days. The volume of each hind paw at the completion of the administration was compared with that at the beginning of the administration, and the swelling-inhibitory effect was evaluated by the difference between them.

[1] = oral dose 50 mg/kg, volume at completion vs beginning of administration

| SMILES | Increase of edema volume (ml) Injected paw [1] [mL] | Increase of edema volume (ml) Non-injected paw [1] [mL] | Increase of edema volume (ml) Injected paw (oral dose 25 mg/kg) [mL] | Increase of edema volume (ml) Non-injected paw (oral dose 25 mg/kg) [mL] |
| --- | --- | --- | --- | --- |
| CNC(=Nc1cc(C(C)c2cccc(C(=O)c3ccccc3)c2)ns1)N1CCOCC1.Cl (stereo not shown) [Experiment 1, N'-{3-[1-(3-Benzoylphenyl)ethyl]-5-isothiazolyl}-N-methyl-4-morpholine carboximidamide hydrochloride] | 0.12 | 0.02 |  |  |
| CC(c1cccc(C(=O)c2ccccc2)c1)c1n[nH]c(N)n1.Cl (stereo not shown) [Experiment 320, {3-[1-(5-Amino-1H-1,2,4-triazol-3-yl)ethyl]phenyl}(phenyl)methanone hydrochloride] |  |  | -1.20 | -0.53 |
| CC(c1ccc(-c2ccccc2)c(F)c1)c1cc(N=C(N)N2CCOCC2)n(C)n1.Cl.Cl (stereo not shown) [Experiment 49, N'-{3-[1-(2-Fluoro[1,1'-biphenyl]-4-yl)ethyl]-1-methyl-1H-pyrazol-5-yl}-4-morpholinecarboximidamide dihydrochloride] | -0.24 | -0.17 |  |  |
| CCNC(=Nc1nc(C(C)c2cccc(C(=O)c3ccccc3)c2)n[nH]1)N1CCOCC1.Cl (stereo not shown) [Experiment 75, N'-{3-[1-(3-Benzoylphenyl)ethyl]-1H-1,2,4-triazol-5-yl}-N-ethyl-4-morpholinecarboximidamide hydrochloride] | -1.08 | -0.53 |  |  |
| CC(c1cccc(C(=O)c2ccccc2)c1)c1nc(N=C(N(C)C)N2CCOCC2)ns1.Cl (stereo not shown) [Experiment 73, N'-{5-[1-(3-Benzoylphenyl)ethyl]-1,2,4-thiadiazol-3-yl}-N,N-dimethyl-4-morpholinecarboximidamide hydrochloride] | -0.95 | -0.78 |  |  |
